Assay: in vitro
Conditions: human, hela cells, % viability

SMILES | viability at 28.5 h, 10 µM
O=C(COc1ccccc1)N/N=C/c1ccc[nH]1 [CBK261281] | 104%
C(=N\c1ccc(Cc2ccc(/N=C/c3ccc[nH]3)cc2)cc1)/c1ccc[nH]1 [CBK261282] | 101%
CNCC(=O)N1c2ccccc2CCc2ccc(NC(=O)OC)cc21 [CBK261285C] | 96.5%
O=C1C2C(c3ccc(F)cc3)NC(c3ccc(F)cc3)C1C(c1ccc(F)cc1)NC2c1ccc(F)cc1 (centres unmarked) [CBK261288] | 110%
CCOC(=O)Nc1ccc2c(c1)N(C(=O)CCN1CCOCC1)c1ccccc1CC2 [CBK261291C] | 103%
O=C(CCc1ccccc1)NNC(=O)C1CC1c1ccccc1 (centres unmarked) [CBK261292] | 114%
CCOc1ccc(NC(NC(=O)Nc2ccccc2)C(Cl)(Cl)Cl)cc1 (centres unmarked) [CBK261294] | 99.8%
O=C(CCCCCN1C(=O)c2cccc3cccc(c23)C1=O)NO [CBK261295] | 55.6%
COc1ccc(C(=O)Nc2ccccc2Nc2cc(-c3ccccc3)nn2-c2ccccc2)cc1 [CBK261296] | 88.4%
O=C(Nc1ccccc1Nc1cc(-c2ccccc2)nn1-c1ccccc1)c1ccc(Br)cc1 [CBK261297] | 84.7%
Cc1ncc([N+](=O)[O-])n1CCOC(=O)NC(N1CCOCC1)C(Cl)(Cl)Cl (centres unmarked) [CBK261299] | 103%
COc1cc(OC)cc(C(=O)Nc2ccc(S(=O)(=O)Nc3nccs3)cc2)c1 [CBK261300] | 103%
COc1cc(/C=C2\SC(=S)N(CC(=O)NNC(=O)c3ccccc3O)C2=O)ccc1O [CBK261301] | 94%
O=C1NC2(CCCCC2)C(=O)N1CCS(=O)(=O)Oc1ccc(Br)cc1 [CBK261303] | 93.5%
O=C(O)CC/C(=N\NC(=O)c1cccnc1)c1ccccc1 [CBK261305] | 97.2%
Cc1ccc(S(=O)(=O)NC(CC(=O)O)c2ccccc2)cc1 (centres unmarked) [CBK261307] | 105%
CCOC(=O)c1c(CN(C)C)n(-c2ccccc2)c2cc(Br)c(O)cc12 [CBK261309C] | 83.4%
COc1ccc(OC)c(C(O)c2coc3ccc(O)c(CN(C)C)c23)c1 (centres unmarked) [CBK261314] | 114%
O=C(O)CCCNS(=O)(=O)c1ccc([N+](=O)[O-])cc1 [CBK261317] | 93.1%
NS(=O)(=O)c1ccc(Nc2c(C(=O)O)cc([N+](=O)[O-])cc2[N+](=O)[O-])cc1 [CBK261319] | 93%
O=C(CN1C(=O)c2ccccc2C1=O)Nc1cccc2cccnc12 [CBK261320] | 91.2%

SMILES | viability at 28.5 h, 10 µM
COC(=O)c1ccc(NC(=O)c2c(Br)c(Br)c(Br)c(Br)c2C(=O)O)cc1 [CBK261321] | 100%
O=C(O)CCCC(=O)Nc1ccccc1Br [CBK261322] | 102%
COc1ccccc1NC(=O)CCCC(=O)O [CBK261323] | 101%
C(=N\Nc1nc(-c2ccccc2)cs1)/c1ccccc1 [CBK261327] | 101%
O=C(O)c1cc(C(=O)O)cc(N2C(=O)c3ccc(-c4ccc5c(c4)C(=O)N(c4cc(C(=O)O)cc(C(=O)O)c4)C5=O)cc3C2=O)c1 [CBK261331] | 96.6%
O=C(O)C1CC(C(=O)O)C(C(=O)O)CC1C(=O)O (centres unmarked) [CBK261332] | 89.4%
CC(=O)NCCC(CN1CCOCC1)([N+](=O)[O-])[N+](=O)[O-] [CBK261338] | 88.7%
O=C(Nc1ccc(Sc2ccc([N+](=O)[O-])cc2)cc1)c1ccc2c(c1)C(=O)N(c1ccccc1-c1ccccc1)C2=O [CBK261340] | 77.1%
CCC(=O)NC(Nc1cc(Cl)ccc1OC)(C(F)(F)F)C(F)(F)F [CBK261342] | 96.3%
CCOC(=O)NC(Nc1cccc(C)n1)(C(F)(F)F)C(F)(F)F [CBK261343] | 115%
O=C(Nc1ccccc1)c1ccc(-c2ccccc2)cc1 [CBK261346] | 107%
Cc1ccc(NC(=O)c2ccc(-c3ccccc3)cc2)c(OC(=O)c2ccc(-c3ccccc3)cc2)c1 [CBK261347] | 98.9%
COc1cc(C2N(Cc3ccccc3)CCN2Cc2ccccc2)ccc1OC(C)=O [CBK261349] | 89.2%
NS(=O)(=O)c1ccc(NC(=O)CCC(=O)O)cc1 [CBK261350] | 86.9%
Cc1[nH]c2ccccc2c1/C=N/c1ccc(S(N)(=O)=O)cc1 [CBK261352] | 96%
O=C(N/N=C/c1ccc(Br)s1)c1cccc([N+](=O)[O-])c1 [CBK261354] | 117%
O=C(O)c1ccc(C(=O)O)c2c(C(=O)O)cccc12 [CBK261356] | 82.3%
C=CCNC1OC(CO)C(O)C(O)C1O (centres unmarked) [CBK261357] | 88.9%
CC1(C)CC(CC(=O)NN)(c2ccccc2)CCO1 (centres unmarked) [CBK261358C] | 86.6%
CCOc1ccc(C2(C)C(=O)N(CN3CCOCC3)C(=O)N2CN2CCOCC2)cc1 (centres unmarked) [CBK261359] | 96%
CCOc1ccc(C(C)(CC(=O)O)C(=O)O)cc1 (centres unmarked) [CBK261361] | 102%

SMILES | viability at 28.5 h, 10 µM
Cc1noc(COc2ccc(OCc3nc(C)no3)cc2)n1 [CBK261364] | 95.6%
O=C(Nc1cccc(OC(=O)c2cccc(S(=O)(=O)N3CCOCC3)c2)c1)c1ccccc1 [CBK261365] | 85.5%
O=C(Nc1cccc([N+](=O)[O-])c1)c1cc(S(=O)(=O)N2CCCCC2)ccc1Cl [CBK261367] | 93.9%
Cc1ccc(C(=O)Nc2cccc(OC(=O)c3cc(S(=O)(=O)N4CCCCC4)ccc3Cl)c2)cc1 [CBK261368] | 97.8%
CC(=O)Nc1ccc(S(=O)(=O)c2cc(O)ccc2O)cc1 [CBK261372] | 85.9%
COC(=O)c1ccc(CO)nc1 [CBK261376C] | 104%
O=C(CNC(=O)c1ccncc1)N/N=C/c1c(O)ccc2ccccc12 [CBK261378] | 77%
Nc1cc(NC(=O)c2cccc(C(=O)Nc3ccc(Cl)c(N)c3)c2)ccc1Cl [CBK261379] | 94.1%
OCCNc1nc(Cl)nc(Nc2nc(-c3ccccc3)cs2)n1 [CBK261381] | 86.2%
N#CCCN(C1CCCCC1)S(=O)(=O)c1ccc(-c2ccc([N+](=O)[O-])cc2)cc1 [CBK261382] | 90.6%
NC(=O)OC(c1ccccc1[N+](=O)[O-])P(=O)(c1ccccc1)c1ccccc1 (centres unmarked) [CBK261383] | 88.3%
C(=N\c1ccc2c(c1)OCCOCCOc1cc(/N=C/c3ccccc3)ccc1OCCOCCO2)/c1ccccc1 [CBK261388] | 100%
CC(=O)Nc1ccc(-c2nc3ccc(-c4ccc5nc(-c6ccc(NC(C)=O)cc6)oc(=O)c5c4)cc3c(=O)o2)cc1 [CBK261391] | 107%
O=C(O)c1cc(NC(=O)c2cccc(N3C(=O)c4ccc([N+](=O)[O-])cc4C3=O)c2)cc(C(=O)O)c1 [CBK261394] | 90.5%
CC(C)(C)C(=O)Nc1ccc(-c2nc3ccc(Cc4ccc5nc(-c6ccc(NC(=O)C(C)(C)C)cc6)oc(=O)c5c4)cc3c(=O)o2)cc1 [CBK261396] | 104%
O=C1c2ccc(Oc3cccc(Oc4ccc5c(c4)C(=O)N(c4ccccn4)C5=O)c3)cc2C(=O)N1c1ccccn1 [CBK261397] | 89.8%
O=C1c2ccc(Oc3cccc(Oc4ccc5c(c4)C(=O)N(CCO)C5=O)c3)cc2C(=O)N1CCO [CBK261398] | 110%
CCCN1C(=S)N(CCO)C(=O)/C1=C/C=C1/Oc2ccccc2N1CCC(=O)O [CBK261400] | 88.6%
CNC(=O)Nc1ccccc1NC(=O)NC [CBK261401] | 93%
O=C(O)c1ccc(N2C(=O)CC(N3CCN(Cc4ccccc4)CC3)C2=O)cc1 (centres unmarked) [CBK261403] | 94.7%
COc1ccc(CCCNC(=N)N)cc1Cl [CBK261404G] | 93.4%

SMILES | viability at 28.5 h, 10 µM
CC(C)NCC(O)COCc1ccc(Cl)cc1 (centres unmarked) [CBK261406C] | 108%
Cc1ccc(C(=O)N/C(=C\c2cccc([N+](=O)[O-])c2)C(=O)NC2CCCCC2)cc1 [CBK261407] | 89.2%
N=C1NC(=O)/C(=C\c2ccc(-c3ccc(Br)cc3)o2)S1 [CBK261409] | 69.9%
O=C(O)c1ccc(S(=O)(=O)c2ccc(O)cc2)cc1 [CBK261411] | 95.2%
Oc1ccc(/C=N/N(Cc2ccccc2)Cc2ccccc2)cc1 [CBK261414] | 98.2%
OC(Cn1nc(-c2ccccc2)cc1-c1ccccc1)Cn1c2ccc(Cl)cc2c2cc(Cl)ccc21 (centres unmarked) [CBK261418] | 84.7%
Cc1cccc(NCC(O)Cn2c3ccc(Br)cc3c3cc(Br)ccc32)c1 (centres unmarked) [CBK261419] | 94.5%
OC(CNc1cccc2ccccc12)Cn1c2ccc(Br)cc2c2cc(Br)ccc21 (centres unmarked) [CBK261420] | 99.8%
Cc1nc([N+](=O)[O-])c(NCCO)n1Cc1ccccc1 [CBK261422] | 88.5%
Cn1c(-c2ccc(-c3nc4cnccc4n3C)cc2)nc2cnccc21 [CBK261423] | 106%
CC(NC(=O)COc1ccc(Cl)cc1Cl)C(=O)O (centres unmarked) [CBK261425] | 91.2%
O=C(O)c1ccc(CN2CCOCC2)o1 [CBK261426C] | 90.7%
O=C(/C=C(O)/C(O)=C/C(=O)c1ccc(Cl)cc1)c1ccc(Cl)cc1 [CBK261428] | 102%
CN(C(=O)CCC(=O)O)c1ccccc1C(=O)O [CBK261429] | 104%
O=C(N/N=C/C=N/NC(=O)c1ccccc1O)c1ccccc1O [CBK261430] | 98.2%
Cc1cccnc1NC(=O)c1c(O)c2ccccc2n(C)c1=O [CBK261431] | 96%
CCn1c(=O)c(C(=O)NCCN2CCCCC2)c(O)c2ccccc21 [CBK261432C] | 97.7%
O=[N+]([O-])c1cccc(-c2nc(-c3ccccc3)c(-c3ccc4oc5ccc(-c6[nH]c(-c7cccc([N+](=O)[O-])c7)nc6-c6ccccc6)cc5c4c3)[nH]2)c1 [CBK261433] | 87.5%

Same assay, conditions: human, hela cells, % viability, bulk resorufin, single well

SMILES | viability at 28.5 h, 10 µM
Cc1cccc(OP(=O)(O)Oc2cccc(C)c2C)c1C [CBK261316] | 91.7%
COc1ccc(N2C(=O)NC(=O)/C(=C\c3ccc(O)c(O)c3)C2=O)cc1 [CBK261436] | 92%
